Laboratory results published in US7723331B2, “Thienopyrimidine compounds and uses thereof” (AstraZeneca AB, priority 2006, dated 2010).
pIC50: −log10 of the molar value.

Columns and labels:
hERG = hERG (Homo sapiens, UniProt Q12809); experiment: hERG activity (planar-array-based voltage clamp); type: cell-based; details: modified method of Kiss et al.
Protocol: hERG testing was performed using a modified version of the method described by Kiss et al., “High throughput ion-channel pharmacology: planar-array-based voltage clamp.” Assay Drug Dev Technol., 2003, 1, 127-35.

[1] = target: T1, human melanin concentrating hormone receptor 1 (hMCHr1) (Homo sapiens, UniProt Q99705); experiment: MCHr1 radioligand binding (125I-MCH displacement); details: membranes from CHO-K1 cells expressing hMCHr1, 125I-MCH
T1 construct: purchased Euroscreen; host or cells: CHO-K1
Protocol: Assays were performed on membranes prepared from CHO-K1 cells expressing the human melanin concentrating hormone receptor 1 (hMCHr1, […] protein; Euroscreen). Assays were performed in a 96-well plate format in a final reaction volume of […] per well. Each well contained 6 μg of membrane proteins diluted in binding buffer (50 mM Tris, 3 mM MgCl2, 0.05% bovine serum albumin and the radioligand ^125I-MCH (IM344 Amersham) was added to give 10 000 cpm (counts per minute) per well. Each well contained 2 μl of the appropriate concentration of competitive antagonist prepared in DMSO or in HOAc and left to stand at 30° C. for 60 minutes. Non-specific binding was determined as that remaining following incubation with 1 μM MCH (Melanin concentrating hormone, H-1482 Bachem). The reaction was terminated by transfer of the reaction to GF/A filters using a Micro96 Harvester (Skatron Instruments, Norway). Filters were washed with assay buffer. Radioligand retained on the filters was quantified using a 1450 Microbeta TRILUX (Wallac, Finland).
Non-specific binding was subtracted from all values determined. Maximum binding was that determined in the absence of any competitor following subtraction of the value determined for non-specific binding. Binding of compounds at various concentrations was plotted according to the equation y=A+((B−A)/1+((C/x)^D))) and IC50 estimated where: […]

recombinant hMCHr1 = target: T2, recombinant hMCHr1 (Homo sapiens, UniProt Q99705); experiment: MCHr1 functional assay ([35S]GTPγS); type: biochemical; details: hMCHr1 membranes, ED80 concentration of MCH
T2 construct: purchased Euroscreen
Protocol: Membranes expressing recombinant hMCHr1 (5.45 pmol/mg protein; Euroscreen) were prepared in assay buffer (50 mM HEPES, 100 mM NaCl, 5 mM MgCl2, 1 mM EDTA, 200 μM DTT, 20 μM GDP (Sigma) containing 0.1 μg/ml BSA, pH7.4) before assay. The assays were performed using membranes at 6 μg/well in an assay volume of 200 μL and the appropriate concentrations of compounds prepared in DMSO or in HOAc. The reaction was started by addition of 0.056 nM [^35S]GTPγS (Specific activity >1000 Ci/mmol; Amersham) and an ED80 concentration of MCH (determined for each membrane and each MCH batch). Non-specific binding was determined using 20 μM non-radiolabelled GTPγS. Plates were incubated for 45 min at 30° C. Free and bound GTPγS were separated by filtration binding using GF/B filter mats presoaked in wash buffer (50 mM Tris, 5 mM MgCl2, 50 mM NaCl, pH 7.4) using a Micro96 cell harvester (Skatron Instruments) and the filters then dried at 50° C. before counting using a 1450 Microbeta TRILUX (Wallac).
Data are means±SD for experiments performed in triplicate. IC50 values of antagonists were determined using non-linear regression analysis of concentration response curves using Activity Base.

Chain of hERG (Q12809 whole entry): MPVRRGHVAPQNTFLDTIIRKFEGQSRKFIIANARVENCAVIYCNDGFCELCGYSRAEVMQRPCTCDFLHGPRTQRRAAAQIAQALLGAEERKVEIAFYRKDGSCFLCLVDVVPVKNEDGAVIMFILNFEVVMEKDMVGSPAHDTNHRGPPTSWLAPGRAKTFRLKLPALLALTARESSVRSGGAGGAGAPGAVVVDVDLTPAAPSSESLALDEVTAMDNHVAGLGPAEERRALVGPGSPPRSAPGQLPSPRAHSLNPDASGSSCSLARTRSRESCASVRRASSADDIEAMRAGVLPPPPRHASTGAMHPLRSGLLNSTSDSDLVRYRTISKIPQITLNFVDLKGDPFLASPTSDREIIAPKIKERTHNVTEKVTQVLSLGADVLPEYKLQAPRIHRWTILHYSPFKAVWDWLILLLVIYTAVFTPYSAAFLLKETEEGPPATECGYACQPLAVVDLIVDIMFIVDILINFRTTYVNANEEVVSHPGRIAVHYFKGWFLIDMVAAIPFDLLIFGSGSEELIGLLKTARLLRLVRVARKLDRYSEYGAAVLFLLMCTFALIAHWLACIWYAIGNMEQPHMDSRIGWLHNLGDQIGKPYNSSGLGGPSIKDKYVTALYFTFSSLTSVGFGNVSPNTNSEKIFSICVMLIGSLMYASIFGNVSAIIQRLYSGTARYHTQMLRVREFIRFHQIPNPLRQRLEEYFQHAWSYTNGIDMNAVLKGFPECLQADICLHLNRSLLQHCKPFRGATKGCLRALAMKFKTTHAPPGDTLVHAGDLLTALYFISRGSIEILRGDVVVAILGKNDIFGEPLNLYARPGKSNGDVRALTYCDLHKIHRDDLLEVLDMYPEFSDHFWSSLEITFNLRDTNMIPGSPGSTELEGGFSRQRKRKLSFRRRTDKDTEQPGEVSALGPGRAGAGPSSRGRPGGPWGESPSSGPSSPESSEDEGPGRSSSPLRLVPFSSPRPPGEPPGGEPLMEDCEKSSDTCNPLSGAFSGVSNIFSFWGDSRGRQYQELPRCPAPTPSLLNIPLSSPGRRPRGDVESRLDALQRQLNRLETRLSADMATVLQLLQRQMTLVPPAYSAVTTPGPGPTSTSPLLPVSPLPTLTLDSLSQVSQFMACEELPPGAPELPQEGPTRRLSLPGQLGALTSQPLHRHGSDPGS
T2 sequence (Q99705 whole entry): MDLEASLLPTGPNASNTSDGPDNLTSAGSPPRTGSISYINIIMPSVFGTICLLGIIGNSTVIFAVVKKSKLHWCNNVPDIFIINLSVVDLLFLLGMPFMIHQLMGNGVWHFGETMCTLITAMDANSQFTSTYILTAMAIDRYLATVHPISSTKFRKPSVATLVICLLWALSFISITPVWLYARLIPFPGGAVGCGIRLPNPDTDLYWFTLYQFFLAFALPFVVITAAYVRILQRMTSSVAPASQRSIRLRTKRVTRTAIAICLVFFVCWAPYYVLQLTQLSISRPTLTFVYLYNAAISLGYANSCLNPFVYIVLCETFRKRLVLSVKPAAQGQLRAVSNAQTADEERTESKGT
T1 sequence (Q99705 whole entry): as above

CN1[C@@H]2CC[C@H]1C[C@@H](Oc1cccc(Cn3cnc4cc(-c5ccc(Cl)cc5)sc4c3=O)c1)C2 [Example 1, 6-(4-Chlorophenyl)-3-(3-{[(3-endo)-8-methyl-8-azabicyclo[3.2.1]oct-3-yl]oxy}benzyl)thieno[3,2-d]pyrimidin-4(3H)-one]
pIC50 (hERG): 5.19
pIC50 [1]: 7.59

CN1CCN(Cc2cccc(Cn3cnc4cc(-c5ccc(Cl)cc5)sc4c3=O)c2)CC1 [Example 5, 6-(4-Chlorophenyl)-3-{3-[(4-methylpiperazin-1-yl)methyl]benzyl}thieno[3,2-d]pyrimidin-4(3H)-one]
pIC50 (recombinant hMCHr1): 7.38

CN1CCC(Oc2cccc(Cn3cnc4cc(-c5ccc(Cl)cc5)sc4c3=O)n2)CC1 [Example 11, 6-(4-Chlorophenyl)-3-({6-[(1-methylpiperidin-4-yl)oxy]pyridin-2-yl}methyl)thieno[3,2-d]pyrimidin-4(3H)-one]
melting point: 202 to 203 °C
